Patent US9562053B2, “Benzo-fused heterocyclic derivatives useful as agonists of GPR120” (Janssen Pharmaceutica NV, priority 2013, dated 2017)

Key:
Type in all cases: cell-based
[1] = molecular target: T1, Human GPR120 short form (Homo sapiens, UniProt Q5NUL3); assay: Human GPR120 in Calcium Flux Assay, Procedure Calcium B (4200 cells/well)
T1 construct: expressed in transfected cells
T1 sequence (Q5NUL3 1-361): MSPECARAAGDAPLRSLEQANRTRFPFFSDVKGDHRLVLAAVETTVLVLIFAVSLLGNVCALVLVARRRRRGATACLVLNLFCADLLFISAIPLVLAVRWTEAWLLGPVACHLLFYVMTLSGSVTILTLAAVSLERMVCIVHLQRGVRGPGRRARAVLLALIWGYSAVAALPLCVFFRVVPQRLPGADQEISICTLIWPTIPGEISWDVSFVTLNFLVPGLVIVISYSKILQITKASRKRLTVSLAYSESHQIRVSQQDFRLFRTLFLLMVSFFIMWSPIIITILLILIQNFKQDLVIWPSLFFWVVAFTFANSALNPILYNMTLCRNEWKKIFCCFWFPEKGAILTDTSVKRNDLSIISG
Text: (§1) This in vitro assay serves to assess test compound agonist activity against the short splice variant (SVS with Accession number NM_001195755.1 confirmed by sequencing data) of the GPR120 receptor. The Human Short splice variant #2 (NM_001195755.1) is missing an in-frame coding exon compared to variant 1 (the Human Long splice variant NM_181745.3), resulting in a shorter isoform (GPR120-S) lacking a 16 aa protein segment compared to isoform GPR120-L. The assay platform utilizes HEK-293 cells stably transfected to express the Human GPR120 short form. These cells are first loaded with the Ca^+2 sensitive dye, Fluo-4 NW. Upon stimulation, intracellular released Ca^+2 can bind to the dye and alter its fluorescence intensity. This increase in fluorescence signal, and thus the flux in intracellular [Ca^+2], is detected and quantitated by fluorescence imaging using a FLIPR reader. The effect of the agonist is measured as a function of concentration and used to calculate an EC50 based upon a response curve.
In this procedure 4200 cells/well were employed.
(§2) A Human GPR120 clone (Genbank accession number NM_001195755.1) was placed into the pcDNA3.1 mammalian expression vector carrying the neomycin resistance gene. A stable mammalian cell was generated by placing the above clone into a HEK293 background. Clonal cells responding to long chain fatty acids had expression levels of GPR120 confirmed by RT-qPCR. Human HEK-GPR120 cells were cultured in Dulbecco's Modified Eagle's Medium (DMEM)/F12 medium supplemented with 10% fetal bovine serum (FBS), 1% L-Glutamine and 1% penicillin/streptomycin and 0.5 mg/ml G-418. Cells were split 2 times a week to keep the cells in the log-phase growth.
(§3) In preparation for the assay, HEK cells stably transfected with Human GPR120 (2.5K cells per well in 25 uL growth medium) were seeded into 384-well plates and then incubated overnight (37° C., 5% CO2). The next day, the media was changed to 20 μl assay buffer and the cell starved for 1 h at 37° C. The dye loading solution (2× dye) was prepared using 10 ml assay buffer, 100 μl of 250 mM probenecid, 1 bottle of Component A, and 20 μl of dye in DMSO. Twenty μl of the 2× dye loading buffer was then added to each well. The plates were incubated at 37° C. for 30 min, then at room temperature for an additional 15 minutes, before performing the assay on FLIPR.
(§4) Test compounds were prepared in assay buffer (2 μl of test compound+198 μl assay buffer, final DMSO in assay plate is 0.2%) at the desired concentration, more particularly at 100 μM, 50 μM, 25 μM, 12.5 μM, 6.25 μM, 3.125 μM, 1.562 μM, 0.781 μM, 0.391 μM, 0.195 μM, 0.098 μM, 0.049 μM, 0.024 μM and 0.012 μM.
(§5) The assay was performed on a FLIPR plate reader using the following parameters. Baseline was read for 10 seconds at 1 sec intervals. The program was set to transfer 10 μL of ligand from compound plate to cell plate after baseline reading. Aspiration was executed at: 10 μl/sec speed, 4.6 μl height; Dispensing was executed at: 30 μl/sec speed, 45 μl height. After compound addition, each well was read for 300 sec, with measurements collected at 1 sec intervals.
(§6) The kinetic data from the FLIPR was based upon a 5 minute window for data collection. The fluorescence of each sample well was used for individual calculations of a normalized RFU value, which was defined as maximum response minus the minimum response. The normalized fluorescence reading (RFU) was calculated as follows: RFU=Fmax−Fmin
(§7) The data were fitted to a sigmoidal dose-response curve with a variable Hill slope (<2) using nonlinear regression with GraphPad Prism 5.0 to calculate the EC50 values. The Fitting Equation was: Y=Bottom+(Top−Bottom)/(1+10^((LogEC50−X)*HillSlope)), where X is the log of the concentration and Y is the response.

[2] = molecular target: T1, Human GPR120 short form; assay: Human GPR120 in Calcium Flux Assay, Procedure Calcium A (2500 cells/well)
Text: as §1
In this procedure 2500 cells/well were employed.
as §2, §3, §4, §5, §6, §7

[3] = molecular target: T2, short form of the GPR120 receptor (Homo sapiens, UniProt Q5NUL3); assay: Human GPR120 DiscoveRx PathHunter Beta-Arrestin Assay, Procedure β-arrestin B (5000 cells/well)
T2 construct: host or cells: PathHunter CHO-K1 GPR120S β-Arrestin Cell Line
T2 sequence (Q5NUL3 1-361): T1 sequence (Q5NUL3 1-361)
Text: The binding of an agonist (medium/long chain fatty acids or small molecule agonists) to the G-protein-coupled receptor GPR120 activates phospholipase C, leading to release of intracellular Ca^+2 through the generation of inositol 1,4,5-trisphosphate (InsP3 or IP3). GPR120 activation can also trigger intracellular signaling via recruitment of β-Arrestin. In the present method, agonist-induced activation of the human GPR120 receptor is monitored through the use of PathHunter CHO-K1 GPR120 β-Arrestin Cell Line engineered by DiscoveRx, as detailed below. The cell lines are designed to co-express both the ProLink/Enzyme Donor (PK)-tagged GPCR and the Enzyme Activator (EA)-tagged β-Arrestin fusion proteins. Upon GPR120 receptor stimulation/activation, the EA-tagged β-Arrestin portion is translocated to the tagged receptor, where the two enzyme fragments are brought within close proximity. Under these conditions, these fragments can interact and form an active Beta-gal enzyme complex through Enzyme Fragment Complementation (EFC). This active Beta-gal complex can enzymatically hydrolyse the substrate to produce a detectable light signal; therefore, activation as a function of agonist concentration can be expressed as an EC50 value to determine relative compound activities. This in vitro assay therefore serves to assess compound agonist activity of the GPR120.
In Procedure β-arrestin B the cells used were PathHunter CHO-K1 GPR120S β-Arrestin Cell Line, expressing the short form of the GPR120 receptor (Accession #NM_181745), with 5000 cells/well.
The selected CHO-K1 GPR120 β-Arrestin cells were cultured in Ham's F12 media supplemented with 10% fetal bovine serum (FBS), 1% Glutamine, 1×p/s, 800 μg/ml G418 and 300 μg/ml Hygromycin B (for selection). Cell stocks were maintained and grown in a sub-confluent state using standard cell culture procedures. The day before the experiment, the cells were harvested with non-enzymatic cell dissociation buffer and re-suspended in complete growth media at the desired concentration. A Corning 384-plate was then seeded with the proper number of cells in a volume of 25 μL, per well. The seeded plates were incubated overnight at 37° C.
On the day of the experiment, the Assay Buffer containing (a) HBSS with Ca^++ and Mg^++, (b) 20 mM HEPES, and (c) 0.1% BSA stabilizer (pH 7.4) was prepared. The growth medium was gently removed from the cell plates and 20 μL of Assay Buffer added to each well. The plate was then incubated at 37° C. for 60 mins. Test compounds were serially diluted in Assay Buffer to desired concentrations (more particularly, to one or more of the following μM concentrations: 25 μM, 12.5 μM, 6.25 μM, 3.125 μM, 1.562 μM, 0.781 μM, 0.391 μM, 0.195 μM, 0.098 μM, 0.049 μM, 0.024 μM, 0.012 μM). Five μl of compound dilution was then added to each well and the plate incubated at 37° C. for 90 mins. The detection reagents were prepared according to the manufacture's instruction. Twelve μL of the detection reagents were added to each well and the plate incubated at room temperature for 60 mins.
The plates were read on an EnVision instrument, using Protocol name: Luminescence, Plate type: 384 Costar, Measurement height: 3 mm, Measurement time: 1 s, Aperture: 384 Plate aperture. The % activity relative to the positive control was calculated using the following equation:
as §7, with “% Activity values” for “data”, “were plotted versus the concentration of test compound and” for “were”, “a” for “a variable”, “slope=1 (fixed value)” for “slope (<2)”

| EC50 [1] | EC50 [2] | EC50 [3] | SMILES |
| --- | --- | --- | --- |
| 499 nM | 1880 nM | 1550 nM | Cc1c(CCC(=O)O)ccc(OCc2cc(Cl)cc3sc(C(C)(C)C)nc23)c1C [Compound 104, 3-{4-[(2-tert-Butyl-6-chloro-1,3-benzothiazol-4-yl)methoxy]-2,3-dimethylphenyl}propanoic acid] |
| 91 nM | 204 nM | 402 nM | CCc1nc2c(COc3ccc(CCC(=O)O)c(C)c3C)cc(F)cc2s1 [Compound 105, 3-{4-[(2-Ethyl-6-fluoro-1,3-benzothiazol-4-yl)methoxy]-2,3-dimethylphenyl}propanoic acid] |
